Reference: patent US10639287B2, “Compounds for the treatment of mitochondrial diseases” (UNIVERSITE PARIS-SUD, priority 2014, dated 2020)

Tests used:
[1] = test system: fibroblasts from a patient with a mutation on each allele of the POLG gene; experiment: Amount of mtDNA (qPCR) in patient fibroblasts, quiescent conditions; type: cell-based, human
Protocol: Skin fibroblasts from the control and from the patient were cultured to 100% confluence in DMEM at 37° C. under 5% CO2. At 100% confluence, the fibroblasts were washed with PBS and the quiescent medium was added (4.5 g/L D-glucose, 110 mg/L sodium pyruvate, 0.1% foetal bovine serum, 1% penicillin/streptomycin from the stock solution containing 10,000 I.U. penicillin and 10,000 μg/mL streptomycin). After four days in quiescent medium, […] or DMSO (0.1%) was added to the culture medium. The treatment was carried out for 18 days, changing the culture medium with or without clofilium tosylate every three days. […] The mtDNA and nuclear DNA were quantified by qPCR (Sarzi, E., Bourdon, A., Chrétien, D., Zarhrate, M., Corcos, J., Slama, A., Cormier-Daire, V., De Lonlay, P., Munnich, A. and Rötig, A. (2007) Mitochondrial DNA Depletion is a Prevalent Cause of Multiple Respiratory Chain Deficiency in Childhood. J Pediatr, 105, 531-534).
Skin fibroblasts from the patient were cultured to 100% confluence in DMEM at 37° C. under 5% CO2. […] The mtDNA and nuclear DNA were quantified by qPCR (Sarzi, E., Bourdon, A., Chrétien, D., Zarhrate, M., Corcos, J., Slama, A., Cormier-Daire, V., De Lonlay, P., Munnich, A. and Rötig, A. (2007) Mitochondrial DNA Depletion is a Prevalent Cause of Multiple Respiratory Chain Deficiency in Childhood. J Pediatr, 105, 531-534).

[2] = test system: fibroblasts from a patient with a mutation on each allele of the POLG gene; experiment: Amount of mtDNA (qPCR) in patient fibroblasts, cell growth conditions; type: cell-based, human; details: 2.5 μM, DMEM high glucose, harvested at 100% confluence
Protocol: Skin fibroblasts from the control and from the patient were cultured to 100% confluence in a complete Dulbecco's Modified Eagle Medium (DMEM) high glucose medium (4.5 g/L of D-glucose, 110 mg/L sodium pyruvate, 10% foetal bovine serum, 1% penicillin/streptomycin from the stock solution containing 10,000 I.U. penicillin and 10,000 μg/mL streptomycin) at 37° C. under 5% CO2. At confluence, the cultures were trypsinised and placed back in culture at 30% confluence in a complete DMEM high glucose medium supplemented with either 0.1% DMSO or with 2.5 μM clofilium tosylate. They were incubated at 37° C. under 5% CO2 and harvested at 100% confluence. The total fibroblast DNAs were extracted by the phenol-chloroform method, and the mtDNA and nuclear DNA were quantified by qPCR as described in Sarzi et al., 2007 (Sarzi, E., Bourdon, A., Chrétien, D., Zarhrate, M., Corcos, J., Slama, A., Cormier-Daire, V., De Lonlay, P., Munnich, A. and Rötig, A. (2007) Mitochondrial DNA Depletion is a Prevalent Cause of Multiple Respiratory Chain Deficiency in Childhood. J Pediatr, 105, 531-534).

[3] = test system: polg-1(ok1458Δ/+) strain; experiment: Non-toxic concentration (MIC) in nematode, larval development over 4 days, polg-1 mutated line; type: in vivo, Caenorhabditis elegans; details: 1 μM to 50 μM
Protocol: A series of NGM dishes containing clofilium tosylate at concentrations of 1 μM, 5 μM, 10 μM, 50 μM, 100 μM or 200 μM were prepared (three dishes for each concentration). Between 30 and 40 synchronised L1 larvae of the wild-type N2 BRISTOL line or mutated VC1224 line (polg-1(ok1458Δ/+)/mT1 II; +/mT1 [dpy-10(el28)] II), these being nematodes carrying a heterozygous deletion of 2149 bp in the sequence encoding the polg-1 gene, were deposited on each of these dishes.

[4] = test system: wild-type Mip1 or mutated Mip1G651S yeast protein; experiment: Amount of Mip1 proteins in mitochondria-enriched extracts (SDS/PAGE, western blot); type: cell-based, Saccharomyces cerevisiae; details: 32 μM vs DMSO
Protocol: The analysis of the effect of clofilium tosylate on the amount of wild-type or mutated Mip1 proteins was carried out on cell extracts enriched in mitochondria. In order to visualise the expression of the Mip1 and Mip1G651S proteins, the sequence encoding three HA epitopes was cloned in 3′ and in phase with the coding sequence of Mip1 and Mip1G651S.
The yeast cells were cultured in selective medium (SC-TRP, 2% ethanol) overnight. Then, the cells were seeded at an initial optical density (DO600) of 0.05 in 100 mL of YPE (1% Yeast Extract, 0.5% Bacto Peptone, 2% Ethanol) supplemented either by DMSO or by 32 μM clofilium tosylate at 28° C. with stirring until a DO600 between 3 and 4 was achieved. The cells were centrifuged at 3000 g for 5 min and washed with water. The isolation of the fraction enriched in mitochondria and protein extraction of this fraction were carried out according to the protocol described by Hoffman et al., 2009 (Hofmann, L., Saunier, R., Cossard, R., Esposito, M., Rinaldi, T. and Delahodde, A. (2009) A non-proteolytic proteasome activity controls organelle fission in yeast. J. Cell. Sci., 122, 3673-3682).
The protein extracts of the fractions enriched in mitochondria were analysed by SDS/PAGE gel electrophoresis (6% for the analysis of the proteins Mip1-HA and Mip1G651S-HA and 10% for the analysis of Cox2 mitochondrial proteins (encoded by mtDNA) and porin). […]

`CCCCCCC[N+](CC)(CC)CCCCc1ccc(Cl)cc1.Cc1ccc(S(=O)(=O)[O-])cc1` [clofilium tosylate] was tested, and the “amount of mtDNA, quiescent conditions” value ([1]; Example 14, 18-day treatment) was “increased”, the “amount of mtDNA, quiescent conditions, dose-response” value ([1]; Example 25, concentrations of 0.5 μM and 1 μM, 18-day treatment) was “increased” and the “amount of mtDNA, cell growth conditions” value [2] was “slightly increased”. For the same molecule, the larval development [3] was “developed similarly” and the “amount of wild-type Mip1 or mutated Mip1G651S yeast protein” value [4] was “increased”.
